Assay [1] relates to TNFα production in peritoneal murin macrophages stimulated with LPS. Kind of assay: Production of TNFα by peritoneal murine macrophages stimulated with LPS. In kind it is cell-based, mouse. Particulars: for Inhibitory effect on TNFα production when added after 4 hours: peptide added 4 hours after LPS; for Inhibitory effect on TNFα production when added up until 1 hour after LPS stimulation: peptide added up until 1 hour after LPS, compared with simultaneous addition; for IC50: peritoneal murin macrophages stimulated with LPS, read-out: IC50 for inhibition of TNFα production; for Highest degree of inhibition of TNFα production: peritoneal murin macrophages, LPS 1 to 10 ng/ml. How it is done: FIG. 1 represents the production of TNFα by murin macrophages in culture (5×10^5 […]) stimulated with 10 ngr/ml of LPS in presence or absence of 10^−8 M of VIP or PACAP over a period of 24 hours.
FIG. 2 represents the production of TNFα by murin macrophages in culture (5×10^5 cells/ml) after 6 hours of culture with 10 ngr/ml of LPS and to which 10^−8 M of VIP or PACAP is added at different times.
In experiments carried out in vitro VIP and PACAP inhibit the production of TNFα in peritoneal murin macrophages stimulated with LPS. The highest degree of inhibition reaches levels near to 60% and occurs with doses of stimulation between 1 and 10 ng/ml of LPS. The IC50 is around 80 pM, both for VIP and for PACAP and the effect was observed until the end of the experiment (see FIG. 1). The inhibitory effect is the same if both neuropeptides are added up until 1 hour after stimulating the macrophages with LPS, although it reduces progressively until disappearing if added after 4 hours (see FIG. 2).

The subject of assay [2] is circulating TNFα. Kind of assay: Levels of circulating TNFα in mice after injection of LPS. The settings on record: 2 hours after 25 μgr LPS, simultaneous 5 nmol peptide. In kind it is in vivo. How it is done:
In an experiment carried out with mice the levels of circulating TNFα 2 hours after injection of 25 μgr. of LPS approach 4 ngr./ml. Simultaneous administration of 5 nmol of VIP or PACAP reduced said levels by 60%.

In assay [3] the test system is IL-6 production in peritoneal murin macrophages stimulated with LPS. As to the kind of experiment: Production of IL-6 by peritoneal murine macrophages stimulated with LPS. In kind it is cell-based, mouse. The settings on record: for Degree of inhibition of IL-6 production when added after stimulation with LPS: peptide added at different times after LPS; for IC50: peritoneal murin macrophages stimulated with LPS, read-out: IC50 for inhibition of IL-6 production; for Highest degree of inhibition of IL-6 production: peritoneal murin macrophages, LPS 10 ngr./ml. As to the method: FIG. 3 represents the production of IL-6 by murin macrophages in culture (5×10^5 cells/ml) stimulated with 10 ngr/ml of LPS in presence or absence of 10^−8 M of VIP or PACAP over a period of 24 hours.
FIG. 4 represents the production of IL-6 by murin macrophages in culture (5×10^5 cells/ml) after 6 hours of culture with 10 ngr/ml of LPS and to which 10^−8 M of VIP or PACAP is added at different times.
In experiments carried out in vitro VIP and PACAP inhibit the production of IL-6 in peritoneal murin macrophages stimulated with LPS. The highest degree of inhibition reaches levels near to 90% and occurs with doses of stimulation of 10 ngr./ml of LPS.

Assay [4] concerns circulating IL-6. Kind of assay: Levels of circulating IL-6 in mice after injection of LPS. In kind it is in vivo. Particulars: 2 hours after 25 μgr LPS, simultaneous 5 nmol peptide. As to the method:
In an experiment carried out with mice the levels of circulating IL-6 2 hours after injection of 25 μgr. of LPS approach 1.5 ngr./ml Simultaneous administration of 5 nmol of VIP or PACAP reduced said levels by 60% and 75% respectively.

Assay [5] deals with mRNA of TNFα. As to the kind of experiment: Northern blot for TNFα mRNA in LPS-activated macrophages. Particulars: macrophages activated with LPS and exposed to peptide. In kind it is cell-based, Mouse. As to the method: (§1) Mouse macrophages were submitted to the experimental conditions of examples 1 and 3 and their mRNA isolated. This was then analysed using the Northern Blot technique to detect mRNA of TNFα and IL-6.

Assay [6] has as its system mRNA of IL-6. Kind of assay: Northern blot for IL-6 mRNA in LPS-activated macrophages. Particulars: macrophages activated with LPS and exposed to peptide. In kind it is cell-based, Mouse. How it is done:
as §1

The test system of assay [7] is lethal effects of LPS in mice. Kind of assay: Survival of mice injected with a lethal dose of LPS. Particulars: 400 μgr LPS; for Survival rate, administration up to 1 hour after LPS: peptide up to 1 hour after LPS; for Survival rate at the end of the experiment: simultaneous 5 nmol peptide, 4-day period. In kind it is in vivo. How it is done:
FIG. 6 represents the survival of mice injected with 400 μgr. of LPS and, either simultaneously or after 30 minutes, 1 or 4 hours, with 5 nmol. of VIP or PACAP. A. Control; B: VIP a 0 h.; C: VIP a 0.5 h; D: VIP a 1 h.; E: VIP a 4 h.;
An experiment was carried out in which the survival over a 4-day period was studied of mice that had been injected with 400 μgr. of LPS. The mortality in these circumstances was 100% after 36 hours. With simultaneous administration of 5 nmol. of VIP or PACAP a survival rate of 60% was attained at the end of the experiment. Administration of neuropeptides up to 1 hour after injection with LPS still gave survival rates near to 50%.

The term IC50 denotes the concentration needed to halve the response being measured. In the case of HSDAVFTDNYTRLRKMAVKKYLNSILN [VIP], in assay [1], the “Inhibitory effect on TNFα production when added after 4 hours” value is listed as “disappearing”, the “Inhibitory effect on TNFα production when added up until 1 hour after LPS stimulation” value is “the same”, the IC50 is roughly 0.08 nM and the “Highest degree of inhibition of TNFα production” value is given as roughly 60%. Further, the “Reduction of circulating TNFα levels” value in assay [2] was 60%. Besides, in assay [3], the “Degree of inhibition of IL-6 production when added after stimulation with LPS” value was “progressively less”, the IC50 was 0.0086 nM and the “Highest degree of inhibition of IL-6 production” value is roughly 90%. The “Reduction of circulating IL-6 levels” value in assay [4] is 60%. The “Transcripts for TNFα (Northern blot)” value in assay [5] is recorded as “absence of transcripts”. The “Transcripts for IL-6 (Northern blot)” value in assay [6] is on record as “absence of transcripts”. In addition, in assay [7], the “Survival rate, administration up to 1 hour after LPS” value is roughly 50% and the “Survival rate at the end of the experiment” value came out at 60%.

As to “PACAP [two molecular forms PACAP-38 and PACAP-27]”, in assay [1], the “Inhibitory effect on TNFα production when added after 4 hours” value is recorded as “disappearing”, the “Inhibitory effect on TNFα production when added up until 1 hour after LPS stimulation” value is given as “the same”, the IC50 is roughly 0.08 nM and the “Highest degree of inhibition of TNFα production” value is reported as roughly 60%. Also, the “Reduction of circulating TNFα levels” value in assay [2] came out at 60%. For the same substance, in assay [3], the “Degree of inhibition of IL-6 production when added after stimulation with LPS” value is “progressively less”, the IC50 worked out at 0.0086 nM and the “Highest degree of inhibition of IL-6 production” value is roughly 90%. In addition, the “Reduction of circulating IL-6 levels” value in assay [4] stood at 75%. The “Transcripts for TNFα (Northern blot)” value in assay [5] was “absence of transcripts”. Besides, the “Transcripts for IL-6 (Northern blot)” value in assay [6] is listed as “absence of transcripts”. Besides, in assay [7], the “Survival rate, administration up to 1 hour after LPS” value is on record as roughly 50% and the “Survival rate at the end of the experiment” value is recorded as 60%.

These data come from US6429188B1, “Method for treating the endotoxic shock in mammals” (Universidad Complutense de Madrid, priority 1998, dated 2002).
